Measurements from ChEMBL document CHEMBL1143637, “Solid-phase binding assays of peptides using EGFP-Src SH2 domain fusion protein and biotinylated Src SH2 domain” (Bioorg Med Chem Lett, 2005).

Target: Proto-oncogene tyrosine-protein kinase Src (Homo sapiens, UniProt P12931)
Assay: Inhibitory concentration against Src protein tyrosine kinase SH2 domain

Sequence of Proto-oncogene tyrosine-protein kinase Src (P12931 2-536 limits assumed): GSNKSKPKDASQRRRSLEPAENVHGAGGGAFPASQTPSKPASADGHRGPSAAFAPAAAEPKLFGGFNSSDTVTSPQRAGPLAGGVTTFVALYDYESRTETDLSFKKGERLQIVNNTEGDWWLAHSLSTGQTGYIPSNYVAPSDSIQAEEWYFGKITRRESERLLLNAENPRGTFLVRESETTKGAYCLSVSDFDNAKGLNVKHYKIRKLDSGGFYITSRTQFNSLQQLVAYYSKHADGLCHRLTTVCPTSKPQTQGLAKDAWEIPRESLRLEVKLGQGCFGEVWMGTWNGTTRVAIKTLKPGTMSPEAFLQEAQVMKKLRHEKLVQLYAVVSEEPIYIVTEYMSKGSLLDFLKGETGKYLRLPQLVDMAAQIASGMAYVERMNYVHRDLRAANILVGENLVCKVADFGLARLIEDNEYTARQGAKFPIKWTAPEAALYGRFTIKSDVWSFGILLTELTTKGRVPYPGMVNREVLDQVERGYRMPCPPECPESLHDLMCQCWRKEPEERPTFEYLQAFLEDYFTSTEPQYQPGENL

IC50 | SMILES
> 100 µM | CC[C@H](C)[C@H](N)C(=O)N[C@@H](CCC(=O)O)C(=O)N[C@@H](CCC(=O)O)C(=O)N[C@@H](Cc1ccc(O)cc1)C(=O)O
> 100 µM | CC[C@H](C)[C@H](N)C(=O)N[C@@H](CCC(=O)O)C(=O)N[C@@H](CCC(=O)O)C(=O)N[C@@H](Cc1ccc(OP(=O)(O)O)cc1)C(=O)O

Second part, the compound before the results:

SMILES | IC50
CC[C@H](C)[C@H](NC(=O)[C@H](CCC(=O)O)NC(=O)[C@H](CCC(=O)O)NC(=O)[C@@H](N)Cc1ccccc1)C(=O)O | > 100 µM
CC[C@H](C)[C@H](N)C(=O)N[C@@H](CCC(=O)O)C(=O)N[C@@H](CCC(=O)O)C(=O)N[C@@H](Cc1ccccc1)C(=O)O | > 100 µM
CC[C@H](C)[C@H](NC(=O)[C@H](CCC(=O)O)NC(=O)[C@H](CCC(=O)O)NC(=O)[C@@H](N)Cc1ccc(O)cc1)C(=O)O | > 100 µM
